The record followed here is patent publication US8206756B2, “Herbal composition for inflammatory disorders” (Piramal Life Sciences Limited, priority 2005, dated 2012).

A word on the IC50: it is the concentration that gives 50% inhibition.

The test system of test [1] is THP-1 cell adhesion to HUVECs. The test is described as follows: Adhesion of THP-1 mononuclear cells to HUVEC monolayers. It counts as cell-based, human. The settings on record: for Fluorescence Intensity: TNF-α 1 ng/ml; for Fold of control: unstimulated DMSO control = 1, stimulated = 18. As for the experimental part:
Adhesion studies were performed with the promonocytic cell line THP-1, which has been established as a useful model for monocytes in adhesion studies in Circ. Res., 97, 236-243, 2005, with modifications. THP-1 cells were washed twice with labeling medium (M200 plus LSGS). THP-1 cells (6×10^5 cells per ml) were labeled with 10 μg/ml bis-carboxyethyl-carboxyfluorescein acetoxymethylester (a fluorescent probe, BCECF-AM; Sigma) for 30 min at RT. After quenching with 0.1% BSA, the pellet was resuspended in labeling medium. To evaluate monocyte adhesion, HUVEC monolayers treated with TNF-α (1 ng/ml) in the presence or absence of various concentrations of test sample. The media was removed, washed and labeled-THP-1-cells were added to the wells (6×10^4 cells per well) and incubated for 10 minutes at RT in the dark. After co incubation, the wells were washed, filled with lysis buffer (0.1% Triton-X in 1.5 M Tris buffer) and incubated for 30 min. The fluorescence was measured using a fluorescent reader (PolarStar Optima, BMG Labtech) at an excitation peak of 485 nm and an emission peak of 520 nm. Values are means±SEM, representing fluorescent adhesion data. BAY 11-7082 [(E)-3-(4-methylphenylsulfonyl)-2-propenenitrile] was used as a standard and DMSO as vehicle control.

The subject of a further test is IL-6. The experiment in a line: LPS-stimulated IL-6 release in hPBMCs (ELISA). It counts as cell-based. Particulars: Homo sapiens; LPS-stimulated hPBMC. The protocol:
(§1) Primary screening—Human peripheral blood mononuclear cells (hPBMCs). TNF-α production by lipopolysaccharides (LPS) in hPBMCs was measured according to the method described by Jansky, L. et al (Physiol. Res. 52: 593-598, (2003)). Blood was collected from healthy donors into Potassium EDTA vacutainer tubes (BD vacutainer). The PBMCs were isolated using gradient centrifugation in Histopaque-1077 solution (Sigma). Isolated PBMCs were suspended in RPMI 1640 culture medium (Gibco BRL, Pasley, UK) containing 10% fetal bovine serum (FBS) (Hyclone, Utah, USA), 100 U/ml penicillin (Sigma Chemical Co. St Louis, Mo.) and 100 μg/ml streptomycin (Sigma Chemical Co. St Louis, Mo.). The cell concentration was adjusted to 1×10^6 cells/ml. The viability as determined by trypan blue dye exclusion was uniformly ≧98%. […] The % inhibition was recorded. Percent cytotoxicity of the test samples compared to control was evaluated.
(§2) The effect of the plant extract on the proinflammatory cytokines: TNF-α, interleukin-1β (IL-1β), interleukin-6 (IL-6) and interleukin-8 (IL-8) was measured using the supernatants generated in the primary screening assay. […]
(§3) The effect of the Compound 1, on the proinflammatory cytokines: TNF-α interleukin-1β (IL-1β), interleukin-6 (IL-6) and interleukin-8 (IL-8) was measured using the supernatants generated in the primary screening assay. […]
Background: An ELISA detects its analyte on a solid surface through an enzyme-linked reagent.

Test [2] concerns TNF-α. The experiment in a line: LPS-induced TNF-α production in hPBMCs (ELISA). It counts as cell-based. The settings on record: Homo sapiens; LPS-stimulated hPBMC. The protocol:
as §1, with “≧98%. The cell suspension (100 μl) was added to the wells of a 96-well culture plate. Following cell plating, 79 μl of the culture medium and 1 μl of eight different concentrations of the test samples (final concentration 0.03, 0.1, 0.3, 1, 3, 10, 30, 100 μg/ml) dissolved in DMSO (dimethylsulfoxide, Sigma, Mo., USA) were added to the cells. The final concentration of DMSO was adjusted to 0.5%. The vehicle (0.5% DMSO) was used as control. Rolipram (100, 300 μM) was used as a standard. The plates were incubated for 30 min at 37° C. in an atmosphere of 5% CO2. Finally, 20 μl (10 μg/ml) per well of LPS, (Escherchia coli 0127:B8, Sigma Chemical Co., St. Louis, Mo.) was added, for a final concentration of 1 μg/ml.” for “≧98%.”
as §2, §3

A further test deals with IL-8. The experiment in a line: LPS-stimulated IL-8 release in hPBMCs (ELISA). It counts as cell-based. Particulars: Homo sapiens; LPS-stimulated hPBMC. The protocol: as §1, §2, §3
Test [3] concerns TNF-α. The experiment in a line: TNF-α production by synovial cells from a RA patient. The settings on record: Homo sapiens, Synovial cell, 10 hours. Type of test: cell-based. As for the experimental part:
Cytokine production by synovial cells obtained from a rheumatoid arthritis (RA) patient undergoing knee replacement surgery was measured according to the method described by Brennan, F. M. et al (The Lancet. July 29: 244-247, (1989)). The synovial membrane tissue was digested in DMEM (Gibco) containing 10% FBS, 100 U/ml penicillin and 100 μg/ml streptomycin, 4 mg/ml collagenase type I (Worthington), 1.5 μg/ml Dnase type I (Sigma) and 15 U/ml heparin and incubated at 37° C. for 3 hours. After incubation, the digested tissue was filtered through a 70-μm membrane and the cells washed 3 times in complete medium (DMEM with 10% FBS). The synovial cells were cultured at 1×10^6 cells/ml in presence/absence of the test sample for 10 hours. The supernatants were harvested by centrifugation and levels of the cytokines (TNF-α, IL-1β, IL-6, IL-8) measured by ELISA. To assess the cytotoxic effect of the plant extracts, the cellular viability test was performed using MTS reagent. The 50% inhibitory concentration (IC50) values were calculated by a nonlinear regression method using GraphPad software (Prism 3.03).
Effect on proinflammatory cytokines produced by synovial cells obtained from a RA patient was studied for compound 1 as described by procedure of example 8.

Consider `C=C1C(=O)OC2C3=C(C)CCCC3(C)CCC12O` (stereo not shown) [Compound 1, 3a-hydroxy-5a,9-dimethyl-3-methylene-3a,4,5,5a,6,7,8,9b-octahydro-3H-naphtho[1,2-b]furan-2-one], for which the “Fluorescence Intensity” value was 33421 in test [1] (0.1 μM), 34024 in test [1] (0.3 μM), 10195 in test [1] (1 μM) and 5728 in test [1] (3 μM). For the same molecule, the Fold of control in test [1] (0.1 μM) is 13; in test [1] (0.3 μM), 13; in test [1] (1 μM) it was 4; in test [1] (3 μM), 2. Besides, the “TNF-α stimulated monocytic THP-1 cell adhesion to HUVECs” value in test [1] (at 1 μM) is given as “inhibited”. Also, the IC50 in the test on IL-6 is 1600 nM; in the test on TNF-α [2] it was 700 nM; with IL-8, 8900 nM; with TNF-α [3], 800 nM.
